From patent publication US20020035061A1, “COMPOSITIONS AND METHODS FOR TREATING INFECTIONS USING CATIONIC PEPTIDES ALONE OR IN COMBINATION WITH ANTIBIOTICS” (priority 1996, published 2002)
Peptide text beside a SMILES is read from it.

Key:
Test in all cases: microbe, parasite or virus in culture
Type in all cases: cell-based
[1] = test system: inherently resistant microorganisms
[2] = test system: microorganisms with acquired resistance; conditions: for Peptide MIC: in µg/mL
[3] = test system: bacterial isolates; conditions: for Peptide MIC Alone: Tobramycin section
[4] = test system: vancomycin / teicoplanin resistant enterococci
[5] = test system: S. aureus; conditions: S. aureus SA25
[6] = S. aureus SA014 (also SA014 MRSA)
[7] = S. aureus SA025 (also SA025 MRSA)

CC[C@H](C)[C@H](NC(=O)[C@H](C)NC(=O)[C@@H]1CCCN1C(=O)CNC(=O)[C@H](C)NC(=O)[C@@H](NC(=O)[C@H](CCCCN)NC(=O)[C@H](CC(C)C)NC(=O)CNC(=O)[C@H](CO)NC(=O)[C@H](CC(C)C)NC(=O)[C@@H](NC(=O)[C@H](CCCNC(=N)N)NC(=O)[C@H](CCCNC(=N)N)NC(=O)[C@H](Cc1c[nH]c2ccccc12)NC(=O)[C@H](Cc1c[nH]c2ccccc12)NC(=O)[C@H](CCCCN)NC(=O)[C@@H](N)CCCCN)C(C)C)[C@@H](C)O)C(=O)N[C@@H](CCC(N)=O)C(=O)N[C@@H](CO)C(=O)N[C@H](C(=O)N[C@@H](CC(C)C)C(=O)N[C@@H](CC(N)=O)C(=O)N[C@@H](CCCCN)C(=O)O)C(C)C [MBI 21A1] (H-KKWWRRVLSGLKTAGPAIQSVLNK-OH; N-terminus and C-terminus assumed)
Peptide MIC Alone ([1]; E. coli, Mupirocin section): 2 µg/mL | FIC ([1]; peptide + Tobramycin, S. aureus): 0.50 | Peptide MIC + Tobramycin ([2]; P. aeruginosa PA022): 0.125 µg/mL | Tobramycin MIC + Peptide ([2]; P. aeruginosa PA022): 4 µg/mL | Peptide MIC Alone ([2]; P. aeruginosa PA022, Tobramycin section): 4 µg/mL | Peptide MIC + Tobramycin ([2]; P. aeruginosa PA026): 0.125 µg/mL | Tobramycin MIC + Peptide ([2]; P. aeruginosa PA026): 4 µg/mL | Peptide MIC Alone ([2]; P. aeruginosa PA026, Tobramycin section): 16 µg/mL | Peptide MIC + Tobramycin ([2]; P. aeruginosa PA030): 8 µg/mL | Tobramycin MIC + Peptide ([2]; P. aeruginosa PA030): 0.25 µg/mL | Peptide MIC Alone ([2]; P. aeruginosa PA030, Tobramycin section): 16 µg/mL | Peptide MIC + Tobramycin ([2]; P. aeruginosa PA032): 32 µg/mL | Tobramycin MIC + Peptide ([2]; P. aeruginosa PA032): 1 µg/mL | Peptide MIC Alone ([2]; P. aeruginosa PA032, Tobramycin section): 64 µg/mL | Ciprofloxacin MIC + Peptide ([2]; P. aeruginosa PA41): 1 µg/mL | Peptide MIC + Ciprofloxacin ([2]; P. aeruginosa PA41): 4 µg/mL | Peptide MIC Alone ([2]; P. aeruginosa PA41, Ciprofloxacin section): 16 µg/mL | Ciprofloxacin MIC + Peptide ([2]; P. aeruginosa PA77): 1 µg/mL | Peptide MIC + Ciprofloxacin ([2]; P. aeruginosa PA77): 16 µg/mL | Peptide MIC Alone ([2]; P. aeruginosa PA77, Ciprofloxacin section): 32 µg/mL | Peptide MIC ([2]; P. aeruginosa, combination with Ciprofloxacin): 16 | Peptide MIC ([2]; S. aureus, combination with Ciprofloxacin): 2 | Peptide MIC ([2]; S. aureus, combination with Mupirocin): 16 | Peptide MIC + Tobramycin ([2]; S. maltophilia SMA029): 32 µg/mL | Tobramycin MIC + Peptide ([2]; S. maltophilia SMA029): 4 µg/mL | Peptide MIC Alone ([2]; S. maltophilia SMA029, Tobramycin section): 128 µg/mL | Peptide MIC + Tobramycin ([2]; S. maltophilia SMA030): 32 µg/mL | Tobramycin MIC + Peptide ([2]; S. maltophilia SMA030): 4 µg/mL | Peptide MIC Alone ([2]; S. maltophilia SMA030, Tobramycin section): >128 µg/mL | Peptide MIC + Tobramycin ([3]; B. cepacia BC001): 0.25 µg/mL | Tobramycin MIC + Peptide ([3]; B. cepacia BC001): 32 µg/mL | Peptide MIC Alone ([3]; B. cepacia BC001): >128 µg/mL | Mupirocin MIC + Peptide ([3]; E. coli ECO3): 3 µg/mL | Peptide MIC + Mupirocin ([3]; E. coli ECO3): 2 µg/mL | Mupirocin MIC + Peptide ([3]; E. coli SBECO2): 30 µg/mL | Peptide MIC + Mupirocin ([3]; E. coli SBECO2): 2 µg/mL | Peptide MIC + Vancomycin ([3]; E. faecalis EFS007): 1 µg/mL | Vancomycin MIC + Peptide ([3]; E. faecalis EFS007): 1 µg/mL | Peptide MIC + Vancomycin ([3]; E. faecalis EFS012): 1 µg/mL | Vancomycin MIC + Peptide ([3]; E. faecalis EFS012): 16 µg/mL | Peptide MIC + Vancomycin ([3]; E. faecalis EFS013): 1 µg/mL | Vancomycin MIC + Peptide ([3]; E. faecalis EFS013): 32 µg/mL | Peptide MIC + Vancomycin ([3]; E. faecium EFM010): 2 µg/mL | Vancomycin MIC + Peptide ([3]; E. faecium EFM010): 32 µg/mL | Ciprofloxacin MIC + Peptide ([3]; P. aeruginosa PA4): 0.125 µg/mL | Peptide MIC + Ciprofloxacin ([3]; P. aeruginosa PA4): 32 µg/mL | Peptide MIC + Tobramycin ([3]; P. aeruginosa PA022): 0.125 µg/mL | Tobramycin MIC + Peptide ([3]; P. aeruginosa PA022): 4 µg/mL | Peptide MIC Alone ([3]; P. aeruginosa PA022): 4 µg/mL | Peptide MIC + Tobramycin ([3]; P. aeruginosa PA026): 0.125 µg/mL | Tobramycin MIC + Peptide ([3]; P. aeruginosa PA026): 4 µg/mL | Peptide MIC Alone ([3]; P. aeruginosa PA026): 16 µg/mL | Ciprofloxacin MIC + Peptide ([3]; P. aeruginosa PA41): 1 µg/mL | Peptide MIC + Ciprofloxacin ([3]; P. aeruginosa PA41): 4 µg/mL | Mupirocin MIC + Peptide ([3]; P. aeruginosa SBPA1): 30 µg/mL | Peptide MIC + Mupirocin ([3]; P. aeruginosa SBPA1): 32 µg/mL | Peptide MIC + Tobramycin [3, 6]: 16 µg/mL | Tobramycin MIC + Peptide [3, 6]: 0.125 µg/mL | Peptide MIC Alone [3, 6]: 32 µg/mL | Ciprofloxacin MIC + Peptide ([3]; S. aureus SA25): 0.125 µg/mL | Peptide MIC + Ciprofloxacin ([3]; S. aureus SA25): 4 µg/mL | Peptide MIC + Tobramycin [3, 7]: 1 µg/mL | Tobramycin MIC + Peptide [3, 7]: 0.125 µg/mL | Peptide MIC Alone [3, 7]: 2 µg/mL | Ciprofloxacin MIC + Peptide ([3]; S. aureus SA93): 8 µg/mL | Peptide MIC + Ciprofloxacin ([3]; S. aureus SA93): 1 µg/mL | Peptide MIC + Tobramycin ([3]; S. haemolyticus SHA001): 4 µg/mL | Tobramycin MIC + Peptide ([3]; S. haemolyticus SHA001): 0.5 µg/mL | Peptide MIC Alone ([3]; S. haemolyticus SHA001): 16 µg/mL | Peptide MIC + Tobramycin ([3]; S. haemolyticus SHA005): 4 µg/mL | Tobramycin MIC + Peptide ([3]; S. haemolyticus SHA005): 1 µg/mL | Peptide MIC Alone ([3]; S. haemolyticus SHA005): 32 µg/mL | Peptide MIC + Tobramycin ([3]; S. maltophilia SMA029): 32 µg/mL | Tobramycin MIC + Peptide ([3]; S. maltophilia SMA029): 4 µg/mL | Peptide MIC Alone ([3]; S. maltophilia SMA029): 128 µg/mL | Peptide MIC + Tobramycin ([3]; S. maltophilia SMA030): 32 µg/mL | Tobramycin MIC + Peptide ([3]; S. maltophilia SMA030): 4 µg/mL | Peptide MIC Alone ([3]; S. maltophilia SMA030): >128 µg/mL | FIC ([3]; peptide + Ciprofloxacin, P. aeruginosa PA4): 0.50 | FIC ([3]; peptide + Ciprofloxacin, P. aeruginosa PA41): 0.50 | FIC ([3]; peptide + Ciprofloxacin, S. aureus SA25): 0.16 | FIC ([3]; peptide + Ciprofloxacin, S. aureus SA93): 0.50 | FIC ([3]; peptide + Mupirocin, E. coli ECO3): 0.28 | FIC ([3]; peptide + Mupirocin, E. coli SBECO2): 0.28 | FIC ([3]; peptide + Mupirocin, P. aeruginosa SBPA1): 0.53 | FIC ([3]; peptide + Tobramycin, B. cepacia BC001): 0.25 | FIC ([3]; peptide + Tobramycin, P. aeruginosa PA022): 0.53 | FIC ([3]; peptide + Tobramycin, P. aeruginosa PA026): 0.51 | FIC ([3]; peptide + Tobramycin, S. aureus SA014 (also SA014 MRSA)): 0.50 | FIC ([3]; peptide + Tobramycin, S. aureus SA025 (also SA025 MRSA)): 0.50 | FIC ([3]; peptide + Tobramycin, S. haemolyticus SHA001): 0.50 | FIC ([3]; peptide + Tobramycin, S. haemolyticus SHA005): 0.38 | FIC ([3]; peptide + Tobramycin, S. maltophilia SMA029): 0.28 | FIC ([3]; peptide + Tobramycin, S. maltophilia SMA030): 0.16 | FIC ([3]; peptide + Vancomycin, E. faecalis EFS007): 0.56 | FIC ([3]; peptide + Vancomycin, E. faecalis EFS012): 0.16 | FIC ([3]; peptide + Vancomycin, E. faecalis EFS013): 0.28 | FIC ([3]; peptide + Vancomycin, E. faecium EFM010): 0.56 | Peptide MIC + Vancomycin ([4]; E. faecalis EFS012): 2 µg/mL | Vancomycin MIC + Peptide ([4]; E. faecalis EFS012): 4 µg/mL | Peptide MIC + Vancomycin ([4]; E. faecalis EFS013): 2 µg/mL | Vancomycin MIC + Peptide ([4]; E. faecalis EFS013): 4 µg/mL | Vancomycin MIC + Peptide ([4]; in combination with the labelled peptide, E. faecium EFM010): 4 µg/mL | Peptide MIC + Vancomycin ([4]; in combination with vancomycin, E. faecium EFM010): 16 µg/mL | Ciprofloxacin MIC + Peptide [5]: 0.125 µg/mL | Peptide MIC + Ciprofloxacin [5]: 4 µg/mL
